Read-outs that look alike come from different tables or passages of the source. Ends that are not written are not given here.
Legend:
[1] = system: immature pear fruits; type: in vivo, pear (cv. 'Recchia falsa')
Protocol: (§1) The possible toxicity of the selected peptides was evaluated using immature pear fruits (cv. ‘Recchia falsa’), and horse erythrocyte cells, respectively, as plant and animal cell models. Briefly, six fruits for each peptide were pricked to approximately 5 mm deep and inoculated with 100 µL of the corresponding peptide at 50 and 250 µM concentrations. Fruits were kept in a chamber at room temperature for 5 days and repeatedly examined for the development of lesions. The peptide toxicity was measured as lesion diameter. Erythrocytes from a horse blood sample (provided by the University of Bari, Department of Veterinary Medicine, Valenzano, Italy) were used for the hemolytic assay. The erythrocytes were challenged with AMPs at 50 and 250 µM for 3 h and their possible hemolytic activity was observed under light microscope.

[2] = system: horse erythrocyte cells; type: cell-based
Protocol: as §1

[3] = system: Erwinia amylovora; test: Fluorescence microscopy LIVE/DEAD BacLight (SYTO9/PI); type: cell-based, Erwinia amylovora strain PGL Z1; details: 1 h, calculated from SYTO9 and PI counts
Protocol: The bactericidal activity of the selected peptides (GF19, FG22, IL14, and KL29) was assessed by a test contact for 24 h, as described (Section 2.3), coupled with v-qPCR assay using the PMAxx™ (Biotium, Rome, Italy). PMAxx™ is a photo-reactive dye that binds to DNA with high affinity; upon cell lysis, it covalently attaches to disrupted DNA that cannot be amplified by PCR. This unique feature makes PMAxx™ extremely useful in selective detection of bacterial cells with intact plasma membranes by qPCR. Briefly, after 24 h at 25 °C, 200 µL of the mixture was transferred to a new tube and treated with PMAxx at a final concentration of 7.5 μM. Subsequently, samples were incubated in the dark at room temperature for 8 min, followed by photoactivation for 15 min. Genomic DNA of all samples was extracted using the cetyltrimethylammonium bromide (CTAB) method. v-qPCR was carried out in a thermocycler apparatus (Bio-Rad CFX96, BioRad, Milan, Italy), using Ea-lsc primers and conditions reported in Laforest et al.. The v-qPCR cycles consisted of an initial denaturation step of 95 °C for 5 min; 45 cycles of 95 °C for 30 s and 60 °C for 30 s with fluorescence readings at each cycle. For the FM assay, aliquots of E. amylovora suspension were incubated with 50 and 250 μM of selected peptides for 1 h at room temperature. The same protocol was used for X. campestris at different concentrations (100, 50, 25, 12.5, 6.25, 2 μM) using KL29 peptide, known for its potent bactericidal activity against X. campestris. The LIVE/DEAD ®BacLight™ viability kit (ThermoFisher Scientific, Milan, Italy) was used according to the manufacturer’s recommendation to assess the integrity of bacteria cells treated with the peptides at 1 h post-infection (Stocks, 2004). Briefly, 9 μL of sample was mixed with 0.5 μL of SYTO9 and 0.5 μL of propidium iodide (PI) for 15 min at room temperature in the dark. Photomicrographs were taken with a Nikon E800 microscope using a fluorescein isothiocyanate (480/30 excitation filter, DM505 dichroic mirror, 535/40 emission filter) and tetramethyl rhodamine isocyanate (546/10 excitation filter, DM575 dichroic mirror, 590 emission filter) fluorescence filter sets.
Supplementary Table S2. The statistical analysis consisted of counting the coloured spo ts (green: SYTO9 and red: PI) in the different channels of 10 replicas for the two concentrations of each antimicrobial peptide and the relative percentages of viable cells is calculated.
250 µM 50 µM % of viability
(1 picture or pasted object on this page, not shown here)

[4] = system: Erwinia amylovora; test: In vivo antibacterial activity on inoculated immature pear fruits; design: species or system Erwinia amylovora on pear fruits (cv. 'Recchia falsa'); details: immature pears, 6 days at 25 °C, eight replicates
Protocol: To evaluate the in vivo antibacterial activity of selected AMPs, immature pear fruits (cv. ‘Recchia falsa’) were inoculated with E. amylovora and AMPs were applied. Briefly, ten-week-old pears were disinfected by immersion in a 70% ethanol solution for 2 min and then rinsed 3 times in sterile distilled water. Disinfected fruits were pricked to approximately 5 mm deep, with a sterile micropipette tip and inoculated with 20 µL of E. amylovora suspension (10^8 CFU/mL). Once the fruits had absorbed the bacteria, two concentrations of peptides (50 and 250 µM) were used; 20 µL of the concentration was introduced into the inoculation site and incubated in a humid chamber at 25 °C for 6 days. Fruits inoculated with sterile water and with E. amylovora suspension were included as controls. The experiment consisted of eight replicates per treatment, and symptoms were recorded at 6 days post-infection. The symptoms developed in immature pears (i.e., necrosis or bacterial exudates) were evaluated by measuring the diameter of necrotic lesions. The data were then analyzed using variance analysis (ANOVA), followed by Duncan’s multiple range test (α = 0.05), using SPSS statistical software (version 24.0, IBM, Armonk, N.Y., USA). All data were presented as mean values ± standard deviation (SD).

[5] = system: Erwinia amylovora; test: Spot test screening of AMPs on plates; type: cell-based, Erwinia amylovora strain PGL Z1; design: key to Spot test result at 1 mM / Spot test result at 500 µM / Spot test result at 250 µM / Spot test result at 100 µM / Spot test result at 50 µM / Spot test result at 25 µM / Spot test result at 12.5 µM: +: Clear plaque formation; -: no plaque formation; details: for Spot test result at 12.5 µM: 5 µL peptide at 12.5 µM spotted on plate with E. amylovora 10^8 CFU/mL; for Spot test result at 12.5 µM / Spot test result at 25 µM / Spot test result at 50 µM / Spot test result at 100 µM / Spot test result at 250 µM / Spot test result at 500 µM / Spot test result at 1 mM: overnight at 25 °C; for Spot test result at 25 µM: 5 µL peptide at 25 µM spotted on plate with E. amylovora 10^8 CFU/mL; for Spot test result at 50 µM: 5 µL peptide at 50 µM spotted on plate with E. amylovora 10^8 CFU/mL; for Spot test result at 100 µM: 5 µL peptide at 100 µM spotted on plate with E. amylovora 10^8 CFU/mL; for Spot test result at 250 µM: 5 µL peptide at 250 µM spotted on plate with E. amylovora 10^8 CFU/mL; for Spot test result at 500 µM: 5 µL peptide at 500 µM spotted on plate with E. amylovora 10^8 CFU/mL; for Spot test result at 1 mM: 5 µL peptide at 1 mM spotted on plate with E. amylovora 10^8 CFU/mL; for Spot test, killing of E. amylovora at 50 µM (in words): peptide 50 µM
Protocol: (§2) The bacterial material consisted of E. amylovora strain PGL Z1, isolated in 2013 from pear in Apulia region (Italy), and Xanthomonas campestris pv. campestris strain CFBP 1710 (X. campestris), isolated in 1975 from Brassica oleracea var. botrytis in France, which was used as a control to investigate the bactericidal activity and action mode of AMPs against two different bacteria. The bacterial strains were cultured on yeast extract peptone glucose agar (YPGA) and broth (YPG) media, consisting of 0.5% yeast extract, 0.5% peptone, 1% glucose and 1.5% agar. E. amylovora and X. campestris cell suspensions were prepared in sterile distilled water and the suspensions were adjusted to an optical density at 600 nm (OD600) of 0.1, which corresponds approximately to 10^8 CFU/mL.
The nine AMPs were screened using the spot test to select those with the best antibacterial activity against E. amylovora. Briefly, 300 µL of E. amylovora suspension (10^8 CFU/mL) was poured into the plates and maintained at room temperature for 15 min. Subsequently, 5 μL from each peptide at different concentrations (1000, 500, 250, 100, 50, 25 and 12.5 μM) was spotted onto the surface of the plates, followed by overnight incubation at 25 °C. Sterile distilled water was spotted in the plates as a control.
Supplementary Table S1. Results of the spot tests for the nine antimicrobial peptides used against Erwinia
Ascaphin-8 GF-19 + + + + + - -
DASamP1 FF-13 + + + - - - -
DASamP2 IL-14 + + + + + - -
Lycotoxin I IL-25 + + + + - - -
Maculatin 1.3 GF-21 + + + - - - -
Piscidin 1 FG-22 + + + + + - -
BP178 KL-29 + + + + + + -
RIJK2 RV-12 + + + - - - -
+: Clear plaque formation; -: no plaque formation.

[6] = system: Erwinia amylovora; details: 24 h
Protocol: as §2
Briefly, 20 µL from each concentration (50 and 250 µM) was mixed with 180 µL of E. amylovora suspension (YPG) and incubated at 25 °C for 24 h. Six OD600 nm measures were taken over 24 h using the NanoDrop™ One/OneC Microvolume UV-Vis Spectrophotometer (ThermoFisher Scientific, Waltham, MA, USA).

[7] = 20 µL peptide at 50 µM into inoculation site
[8] = 20 µL peptide at 250 µM into inoculation site
[9] = 100 µL peptide at 50 and 250 µM, 5 days at room temperature, six fruits per peptide
[10] = peptide 50 and 250 µM, 3 h, light microscope

Substance | Toxicity (hypersensitive or cytotoxic activity) on pear fruits (in words) ([1]; in vivo) | Toxicity (hemolytic or cytotoxic activity) on horse erythrocytes (in words) [2] | % of viability ([3]; peptide 50 µM) [%] | % of viability ([3]; peptide 250 µM) [%] | Reduction of fire blight symptoms (necrotic lesion diameter) [4, 7] [%] | Reduction of fire blight symptoms (necrotic lesion diameter) [4, 8] [%] | Spot test result at 12.5 µM [5] | Spot test result at 25 µM [5] | Spot test result at 50 µM [5] | Spot test result at 100 µM [5] | Spot test result at 250 µM [5] | Spot test result at 500 µM [5] | Spot test result at 1 mM [5] | Spot test, killing of E. amylovora at 50 µM (in words) [5] | Inhibition of E. amylovora growth (OD600) ([6]; 50 µM) [%] | Inhibition of E. amylovora growth (OD600) ([6]; 250 µM) [%] | Toxicity (hypersensitive or cytotoxic activity) on pear fruits (in words) [1, 9] | Toxicity (hemolytic or cytotoxic activity) on horse erythrocytes (in words) [2, 10]
FFHHIFRGIVHVGKTIHRLVTG [FG22, Piscidin 1] [listing 1 of 2 here] | toxicologically safe for plant and animal cells | toxicologically safe for plant and animal cells |  |  |  |  |  |  |  |  |  |  |  |  |  |  |  | 
FFHHIFRGIVHVGKTIHRLVTG [FG22, Piscidin 1] [listing 2 of 2 here] |  |  | 28 | 49 | 48 | 65 | - | - | + | + | + | + | + | could kill E. amylovora | ~60 | 92 |  | 
IKWKKLLRAAKRIL-NH2 [IL14, DASamP2] |  |  | 15 | 48 | 61 | 76 | - | - | + | + | + | + | + | could kill E. amylovora |  |  | toxicologically safe for plant and animal cells | toxicologically safe for plant and animal cells
FFGKVLKLIRKIF-NH2 [FF13, DASamP1, synthetic antimicrobial peptide, synthesized by ProteoGenix] |  |  |  |  |  |  | - | - | - | - | + | + | + |  |  |  |  | 
GLLGLLGSVVSHVVPAIVGHF-NH2 [GF21, Maculatin 1.3, antimicrobial peptide of frog origin, synthesized by ProteoGenix] |  |  |  |  |  |  | - | - | - | - | + | + | + |  |  |  |  | 
GFKDLLKGAAKALVKTVLF-NH2 [GF19, Ascaphin-8] |  |  | 44 | 64 | 43 | 48 | - | - | + | + | + | + | + | could kill E. amylovora |  |  | toxicologically safe for plant and animal cells | toxicologically safe for plant and animal cells
VQFRIRVRIVIRK-NH2 [VK13, 1036, synthetic antimicrobial peptide, synthesized by ProteoGenix] |  |  |  |  |  |  | - | - | - | - | + | + | + |  |  |  |  | 
Lycotoxin I [IL25] |  |  |  |  |  |  | - | - | - | + | + | + | + |  |  |  |  | 
RIVWVRIRRWFV-NH2 [RV12, RIJK2, synthetic antimicrobial peptide, synthesized by ProteoGenix] |  |  |  |  |  |  | - | - | - | - | + | + | + |  |  |  |  | 
